Results: US9255268B2, “Methods for diagnosing and treating learning or mental disorders” (St. Jude Children's Research Hospital, priority 2012, dated 2016)

What was measured:
[1] = test system: LTP in Dgcr8+/− hippocampus; assay: Rescue of LTP increase in Dgcr8+/− mice by presynaptic restoration of miRNA (AAV into CA3); type: in vivo, mouse; details: presynaptic (CA3) AAV expression; injected at 10 weeks, LTP measured at 16 weeks
Method: (§1) Acute transverse hippocampal slices (400 μm) were prepared according to known methods (Earls, et al. (2010) J. Neurosci. 30:15843-15855). Briefly, mouse brains were quickly removed and placed in cold (4° C.) dissecting artificial CSF (ACSF) containing 125 mM choline-Cl, 2.5 mM KCl, 0.4 mM CaCl2, 6 mM MgCl2, 1.25 mM NaH2PO4, 26 mM NaHCO3, and 20 mM glucose (285-295 mOsm), under 95% O2/5% CO2. After dissection, slices were incubated for 1 hour in ACSF containing 125 mM NaCl, 2.5 mM KCl, 2 mM CaCl2, 2 mM MgCl2, 1.25 mM NaH2PO4, 26 mM NaHCO3, and 10 mM glucose (285-295 mOsm), under 95% O2/5% CO2 at room temperature, and then transferred into submerged recording chambers and superfused (2-3 ml/min) with warm (30-32° C.) ACSF. Field recordings were performed using a setup with eight submerged recording chambers (Campden Instruments). Recordings in each chamber were performed independently. Field EPSPs (fEPSPs) from the CA1 stratum radiatum were recorded by using an extracellular glass pipette (3-5 MΩ) filled with ACSF. Schaffer collateral fibers in the stratum radiatum were stimulated with a bipolar tungsten electrode placed 200-300 μm away from the recording pipette. Stimulation intensities were chosen to produce an fEPSP with a 0.5 V/s slope. LTP was induced by three periods of 200 Hz tetanization delivered every 5 minutes. Each period of tetanization included 10 trains of 200 Hz stimulation delivered at the same intensity for 200 ms (40 stimulations) every 5 seconds.
In Vivo Viral Injections. Adeno-associated viruses (AAVs) were prepared by cloning chimeric hairpins of them iRNAs of interest with hsa-miR-30a into the pAAV-6P-SEWB vector (Christensen, et al. (2010) Front. Neural Circuits 3:16). […]

SERCA2 = assay: Quantitative western blot of SERCA2 in hippocampus after AAV-miRNA injection into CA3; type: in vivo, mouse; details: wild-type mice; injection into CA3 at 10 weeks, hippocampi harvested at 16 weeks; versus GFP-only vector
Method: Western blots were performed according to known methods (Earls, et al. (2010) supra). For human brain tissue, dissected samples arrived from brain banks frozen on dry ice. Mouse tissue was dissected at 4° C. and prepared either as whole-tissue lysates or as crude P2 synaptosomal fractions. Synaptosomes were prepared using established methods (Gray & Whittaker (1962) J. Anat. 96:79-88). In brief, tissue was homogenized in 10 mM HEPES (pH 7.4)/0.32 M sucrose using a motorized glass-TEFLON homogenizer. To separate the P2 synaptosomal fraction, the homogenate was spun for 5 minutes at 800×g; the supernatant from three successive spins was then centrifuged for 20 minutes at 12,000×g. Tissue or synaptosomal pellets were lysed by freezing and thawing, subsequent syringe passage in ice-cold radioimmunoprecipitation assay buffer (50 mM Tris-HCl (pH 7.4), 1% NP-40, 0.25% sodium deoxycholate, 150 mM NaCl, 1 mM EDTA, and protease inhibitor cocktail tablets (Roche), and finally brief sonication. Concentrations of protein lysates were determined by the BCA assay (Thermo Scientific). A 25 μg sample of each protein extract was electrophoresed on a 10% SDS-PAGE gel, and protein was transferred onto polyvinylidene difluoride membranes (Invitrogen). The primary antibodies used were goat anti-SERCA2 (1:250, sc-8095; Santa Cruz Biotechnology) and mouse anti-β-actin (1:10000, A5316; Sigma-Aldrich). […]

[2] = test system: LTP at CA3-CA1 synapses in hippocampal slices; assay: LTP of fEPSPs in acute hippocampal slices in the presence of the SERCA inhibitor thapsigargin; type: cell-based, mouse
Method: as §1, with “seconds. To test whether this increase in SERCA2 was necessary for enhanced LTP in Dgcr8^+/− mice, LTP was measured in the presence of the SERCA inhibitor thapsigargin (4 μM). […] In the absence of thapsigargin, the fEPSP slope increased measured six hours after induction was approximately 120% stronger than in the presence of thapsigargin in slices from Dgcr8^+/− mice (8 mice: 21 slices vehicle, 21 slices thapsigargin; p=0.014).” for “seconds.”

| Compound | rescue of increased LTP in Dgcr8+/− hippocampus [1] | SERCA2 levels (quantitative western blot) (SERCA2) | fEPSP slope increase in the absence versus the presence of thapsigargin ([2]; six hours after induction, 4 μM, slices from Dgcr8+/− mice, p=0.014) | LTP increase in Dgcr8+/− slices ([2]; thapsigargin 4 μM, slices from mature Dgcr8+/− mice) | LTP in slices from wild-type littermates ([2]; thapsigargin 4 μM, wild-type slices, p=0.974) |
| --- | --- | --- | --- | --- | --- |
| miR-185: microRNA; human mature sequence UGGAGAGAAAGGCAGUUCCUGA (SEQ ID NO:6) (UGGAGAGAAAGGCAGUUCCUGA; expressed or natural sequence; listed as Homo sapiens) | sufficient to rescue the increased LTP | decreased | – | – | – |
| miR-25: microRNA; human mature sequence CAUUGCACUUGUCUCGGUCUGA (SEQ ID NO:2) (CAUUGCACUUGUCUCGGUCUGA; expressed or natural sequence; listed as Homo sapiens) | sufficient to rescue the increased LTP | decreased | – | – | – |
| C/C=C(/C)C(=O)O[C@H]1C(C)=C2[C@H]([C@@H]1OC(=O)CCCCCCC)[C@@](C)(OC(C)=O)C[C@H](OC(=O)CCC)[C@@]1(O)[C@H]2OC(=O)[C@@]1(C)O [thapsigargin] | – | – | approximately 120% | rescued the LTP increase | did not affect LTP |
| miR-98: microRNA; human mature sequence UGAGGUAGUAAGUUGUAUUGUU (SEQ ID NO:4) (UGAGGUAGUAAGUUGUAUUGUU; expressed or natural sequence; listed as Homo sapiens) | sufficient to rescue aberrant LTP | – | – | – | – |
